Drawing on US12655150B2 (Cedilla Therapeutics, Inc., priority 2021, dated 2026), this text covers GI50 for 34 compounds.

The structures appear in SMILES notation. Where only a bound is given, the exact number is not on record here.

This test deals with NCI-H226. Nature of the test: 72H TEAD Proliferation Assay (Cell Titer Glo 2.0). It is filed as cell-based. The following applies: Homo sapiens, NCI-H226, 72 h, CTG 2.0, cell line not given (NCI-H226 responsive, NCI-H28 non-responsive). Here is the method:
72H TEAD Proliferation Assay.
The effect of TEAD inhibition on cell proliferation was assayed using Cell Titer Glo (CTG) 2.0 to measure response in mesothelioma cell lines NCI-H226 (ATCC, #CRL-5826) and NCI-H28 (ATCC, #CRL-5820).
The 72H TEAD Proliferation assay utilizes Cell Titer-Glo 2.0 (Promega, #G9243) to measure the proliferation of cells in the presence or absence of compound. Cell Titer-Glo 2.0 determines the amount of viable cells by quantifying ATP (an indication of metabolically active cells). It utilizes the conversion of Luciferin to Oxyluciferin and a luminescent signal with the use of ATP to report the quantity of viable cells in culture. Within cells that are continually growing, ATP is being synthesized to meet their metabolic demands, meanwhile the opposite is true for cells that are dying or slowing down their proliferation and either no longer using ATP or are using less, respectively. The NF2-deficient NCI-H226 has been genetically validated as a cell line that is sensitive to TEAD inhibition. The NF2-wild type NCI-H28 has been genetically validated as a cell line that is not sensitive to TEAD inhibition and grows independently of TEAD activity.
Compounds were screened against the responsive NCI-H226 cell line to assess the compounds' ability to inhibit TEAD and cell growth. Compounds were also screened against the non-responsive NCI-H28 cell line to ascertain whether the inhibition of cell growth was due to inhibition of the target TEAD or whether the inhibition was due to off-target cytotoxicity.
• 1) Assay ready plates (ARPs) were prepared by Echo acoustic liquid handler. […] After CTG addition, plates were placed on shaker at 800 RPM for 15 minutes at room temperature and kept in the dark. Luminescence was measured using EnVision multilabel plate reader with ultra-sensitive detection module. • 9) Data Analysis: First background luminescence (no CTG wells) was subtracted from luminescence reading of all wells, then TO luminescence was subtracted from T72 luminescence. To compare anti-proliferative effect of compounds, GI50 was obtained by fitting dose response curves with nonlinear regression curve fit.
(In ATP-based viability assays light output follows the ATP content of the culture.)
Broadly, the GI50 is the concentration that inhibits growth by half. Take `O=C(O)c1ccc2c(c1)nc(N1CCC3(CC1)CC3)c1nccn12` [I-56, 4-(6-Azaspiro[2.5]octan-6-yl)imidazo[1,2-a]quinoxaline-7-carboxylic acid]: the 50% growth inhibitory concentration (GI50) is > 10 µM. With `C=CC(=O)NCc1cn2c(F)cnc2c(-c2ccc(C(F)(F)F)cc2)n1` [I-235, N-((3-fluoro-8-(4-(trifluoromethyl)phenyl)imidazo[1,2-a]pyrazin-6-yl)methyl)acrylamide], the GI50 was ≤ 1 µM. Then `C=CC(=O)NCc1nc(-c2ccc(C(F)(F)F)cc2F)c2ncccc2n1` [I-306, N-((4-(2-fluoro-4-(trifluoromethyl)phenyl)pyrido[3,2-d]pyrimidin-2-yl)methyl)acrylamide], with ≤ 1 µM. In the case of `C=CC(=O)Nc1cn2cccc2c(-c2ccc(C(F)(F)F)cc2)n1` [I-96, N-(1-(4-(trifluoromethyl)phenyl)pyrrolo[1,2-a]pyrazin-3-yl)acrylamide], the GI50 was ≤ 1 µM. The result for `CC(C)(C)c1ccc(-c2nc3cc(C(=O)O)ccc3n3ccnc23)c(F)c1` [I-59, 4-(4-(tert-Butyl)-2-fluorophenyl)imidazo[1,2-a]quinoxaline-7-carboxylic acid] reads 1 to 5 µM; that for `CC(C)(C)c1cccc(-c2nc3cc(C(=O)O)ccc3n3ccnc23)c1` [I-65, 4-(3-(tert-Butyl)phenyl)imidazo[1,2-a]quinoxaline-7-carboxylic acid], > 10 µM. Then `Cc1cc2c(-c3ccc(C(C)(C)C)cc3)nc3cc(C(=O)O)ccc3n2c1` [I-83, 4-(4-(tert-Butyl)phenyl)-2-methylpyrrolo[1,2-a]quinoxaline-7-carboxylic acid], with 1 to 5 µM; and `CC(C)(C)c1ccc(-c2nc3cc(C(=O)O)cnc3n3cccc23)cc1` [I-139, 6-(4-(tert-Butyl)phenyl)pyrido[3,2-e]pyrrolo[1,2-a]pyrazine-3-carboxylic acid], with ≤ 1 µM; and `O=C(O)c1ccc2c(c1)nc(N1CCc3ccccc3C1)c1cccn12` [I-21, 4-(3,4-Dihydroisoquinolin-2(1H)-yl)pyrrolo[1,2-a]quinoxaline-7-carboxylic acid], with > 10 µM. The compound `COc1cc(-c2ccc(C(F)(F)F)cc2)nc2cc(C(=O)NC(CO)C3CCOCC3)ccc12` (single isomer, unassigned) [I-368, N-(2-hydroxy-1-(tetrahydro-2H-pyran-4-yl)ethyl)-4-methoxy-2-(4-(trifluoromethyl)phenyl)quinoline-7-carboxamide] yielded a GI50 of 1 to 5 µM. The result for `CC(C)(C)c1ccc(-c2nc3cc(C(=O)O)ccc3n3ccc(F)c23)cc1` [I-115, 4-(4-(tert-Butyl)phenyl)-3-fluoropyrrolo[1,2-a]quinoxaline-7-carboxylic acid] reads ≤ 1 µM.

On to `CC(C)(C)c1ccc(-c2nc3cc(C(=O)O)ccc3n3cc(F)cc23)cc1` [I-108, 4-(4-(tert-Butyl)phenyl)-2-fluoropyrrolo[1,2-a]quinoxaline-7-carboxylic acid], for which the GI50 lay in the range of 1 to 5 µM. Then `C#Cc1cc(-c2ccc(C(F)(F)F)cc2)nc2cc(C(=O)N[C@H](CC)CO)ccc12` [I-400, (R)-4-ethynyl-N-(1-hydroxybutan-2-yl)-2-(4-(trifluoromethyl)phenyl)quinoline-7-carboxamide], with ≤ 1 µM. The result for `C=CC(=O)Nc1ccc2c(c1)nc(-c1ccc(C(C)(C)C)cc1)c1nccn12` [I-91, N-(4-(4-(tert-butyl)phenyl)imidazo[1,2-a]quinoxalin-7-yl)acrylamide] reads ≤ 1 µM; that for `C=CC(=O)Nc1ccc2c(c1)nc(-c1ccc(C(F)(F)F)cc1F)c1cccn12` [I-114, N-(4-(2-Fluoro-4-(trifluoromethyl)phenyl)pyrrolo[1,2-a]quinoxalin-7-yl) acrylamide], ≤ 1 µM. The result for `C=C(F)C(=O)NCc1cn2ccnc2c(-c2ccc(C(F)(F)F)cc2)n1` [I-178, 2-Fluoro-N-((8-(4-(trifluoromethyl)phenyl)imidazo[1,2-a]pyrazin-6-yl)methyl)acrylamide] reads ≤ 1 µM. `COCC(C)NC(=O)N1CCc2c(cccc2-c2ccc(C(F)(F)F)cc2)C1` (stereo not shown) [I-78, N-(1-methoxypropan-2-yl)-5-(4-(trifluoromethyl)phenyl)-3,4-dihydroisoquinoline-2(1H)-carboxamide]: the concentration for 50% growth inhibition (GI50) is ≤ 1 µM. The result for `C=CC(=O)Nc1cc(-c2ccc(C(C)(C)C)cc2)nc2cc(C(=O)O)ccc12` [I-103, 4-Acrylamido-2-(4-(tert-butyl)phenyl)quinoline-7-carboxylic acid] reads > 10 µM; that for `COc1cc(-c2ccc(C(F)(F)F)cc2)nc2cc(C(=O)N[C@@H](C)c3cccc(N)c3)ccc12` [I-350, (S)—N-(1-(3-aminophenyl)ethyl)-4-methoxy-2-(4-(trifluoromethyl)phenyl)quinoline-7-carboxamide], ≤ 1 µM; that for `C[C@@H](CO)NC(=O)c1ccc2c(OCC3CC3)cc(-c3ccc(C(F)(F)F)cc3)nc2c1` [I-374, (S)-4-(cyclopropylmethoxy)-N-(1-hydroxypropan-2-yl)-2-(4-(trifluoromethyl)phenyl)quinoline-7-carboxamide], 1 to 5 µM. Then `COc1ccc(-c2nc3cc(C(=O)O)ccc3n3cccc23)cc1` [I-46, 4-(4-Methoxyphenyl)pyrrolo[1,2-a]quinoxaline-7-carboxylic acid], with > 10 µM; and `CC[C@H](CO)NC(=O)c1ccc2c(OC)cc(-c3ccc(C(F)(F)F)cn3)nc2c1` [I-358, (R)—N-(1-hydroxybutan-2-yl)-4-methoxy-2-(5-(trifluoromethyl)pyridin-2-yl)quinoline-7-carboxamide], with ≤ 1 µM; and `O=C(O)c1ccc2c(c1)nc(-c1ccc(SC(F)(F)F)cc1)c1cccn12` [I-194, 4-(4-((trifluoromethyl)thio)phenyl)pyrrolo[1,2-a]quinoxaline-7-carboxylic acid], with ≤ 1 µM.

As for `CC(C)(C)c1ccc(-c2nc3cc(C(=O)NCCOCCOCCN)ccc3n3cccc23)cc1` [I-385, N-(2-(2-(2-Aminoethoxy)ethoxy)ethyl)-4-(4-(tert-butyl)phenyl)pyrrolo[1,2-a]quinoxaline-7-carboxamide], the GI50 lay within 5 to 10 µM.

On to `C=CC(=O)NCc1cn2ccnc2c(Nc2cccc(OC(F)(F)F)c2)n1` [I-442, N-((8-((3-(trifluoromethoxy)phenyl)amino)imidazo[1,2-a]pyrazin-6-yl)methyl)acrylamide], for which the GI50 was in the range of 1 to 5 µM. Take `CC[C@H](CO)NC(=O)c1ccc2c(OC)cc(-c3c(Cl)cc(C(F)(F)F)cc3Cl)nc2c1` [I-398, (R)-2-(2,6-dichloro-4-(trifluoromethyl)phenyl)-N-(1-hydroxybutan-2-yl)-4-methoxyquinoline-7-carboxamide]: the GI50 lay in the range of 1 to 5 µM.

As to `CC[C@H](CO)NC(=O)c1ccc2c(C3CC3)cc(-c3ccc(C(F)(F)F)cc3)nc2c1` [I-399, (R)-4-cyclopropyl-N-(1-hydroxybutan-2-yl)-2-(4-(trifluoromethyl)phenyl)quinoline-7-carboxamide], the GI50 was ≤ 1 µM. On to `COc1cc(-c2ccc(C(F)(F)F)cc2)nc2cc(C(=O)N[C@@H](CO)C3CC3)ccc12` [I-344, (R)—N-(1-cyclopropyl-2-hydroxyethyl)-4-methoxy-2-(4-(trifluoromethyl)phenyl)quinoline-7-carboxamide], for which the GI50 was ≤ 1 µM. `C=CC(=O)NC1CCCc2ccc(-c3ccc(C(F)(F)F)cc3)nc21` (stereo not shown) [I-412, N-(2-(4-(trifluoromethyl)phenyl)-5,6,7,8-tetrahydroquinolin-8-yl)acrylamide]: the concentration for 50% growth inhibition (GI50) was 5 to 10 µM. Then `O=C(O)c1ccc2c(c1)nc(-c1ccc(C(F)(F)F)cc1Cl)c1cccn12` [I-53, 4-(2-Chloro-4-(trifluoromethyl)phenyl)pyrrolo[1,2-a]quinoxaline-7-carboxylic acid], with 1 to 5 µM; and `C=CC(=O)NCc1nc(-c2ccc(C(F)(F)F)cc2)c2ccc(F)cc2n1` [I-445, N-((7-fluoro-4-(4-(trifluoromethyl)phenyl)quinazolin-2-yl)methyl)acrylamide], with ≤ 1 µM. Then `C[C@H](CO)NC(=O)c1ccc2c(c1)nc(-c1ccc(C(C)(C)C)cc1)c1cccn12` [I-191, (R)-4-(4-(tert-butyl)phenyl)-N-(1-hydroxypropan-2-yl)pyrrolo[1,2-a]quinoxaline-7-carboxamide], with ≤ 1 µM; and `COc1cc(C(F)(F)F)ccc1-c1nc2cc(C(=O)O)ccc2n2cccc12` [I-55, 4-(2-Methoxy-4-(trifluoromethyl)phenyl)pyrrolo[1,2-a]quinoxaline-7-carboxylic acid], with 5 to 10 µM. Then `Cc1cc2c(N3CCC(C(F)(F)F)CC3)nc3cc(C(=O)O)ccc3n2c1` [I-406, 2-Methyl-4-(4-(trifluoromethyl)piperidin-1-yl)pyrrolo[1,2-a]quinoxaline-7-carboxylic acid], with ≤ 1 µM.
